Experimental data published in patent US6548510B1, “Pharmaceutical composition containing deoxypeganine for the treatment of nicotine dependence” (priority 1999, dated 2003).

Assays:
smokers = test: Influence of deoxypeganine on the smoking of healthy subjects; type: in vivo, human; details: for Cigarette consumption after administration of 50 mg of deoxypeganine HCl/day: subject (smoker), 50 mg/day, administration period 24 hours
Description: Example: Influence of deoxypeganine on the smoking of healthy subjects
In the context of the testing of a deoxypeganine-containing formulation which releases about 50 mg of deoxypeganine hydrochloride per day in vivo, in addition to other subjects two smokers were also used as test subjects, as “smoking” was not an exclusion criterion in the testing. […] The administration period was 24 hours.

acetylcholinesterase = acetylcholinesterase (Homo sapiens, UniProt P22303); details: cited from earlier work
monoamine oxidase = details: cited from earlier work
[1] = in contrast to neostigmine; cited from earlier work

Sequence of acetylcholinesterase (P22303 32-614, species assumed): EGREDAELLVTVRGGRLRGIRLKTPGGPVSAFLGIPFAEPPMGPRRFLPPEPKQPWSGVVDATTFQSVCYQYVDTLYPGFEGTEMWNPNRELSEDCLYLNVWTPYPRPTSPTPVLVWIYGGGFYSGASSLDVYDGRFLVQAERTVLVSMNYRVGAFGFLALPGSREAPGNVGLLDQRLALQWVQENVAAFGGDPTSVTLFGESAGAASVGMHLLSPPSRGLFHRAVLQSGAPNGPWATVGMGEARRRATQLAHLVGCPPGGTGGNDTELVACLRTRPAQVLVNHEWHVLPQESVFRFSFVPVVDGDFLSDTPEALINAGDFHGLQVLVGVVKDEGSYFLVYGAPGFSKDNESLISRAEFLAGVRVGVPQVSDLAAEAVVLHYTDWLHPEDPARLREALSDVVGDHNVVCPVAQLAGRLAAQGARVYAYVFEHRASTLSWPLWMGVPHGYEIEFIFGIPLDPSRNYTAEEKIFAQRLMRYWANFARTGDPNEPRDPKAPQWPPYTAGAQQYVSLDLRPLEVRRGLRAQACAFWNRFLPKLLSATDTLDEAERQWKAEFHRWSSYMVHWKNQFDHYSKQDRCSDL

| SMILES | Cigarette consumption after administration of 50 mg of deoxypeganine HCl/day (smokers; without deoxypeganine 22 cigarettes/day (mean of n = 3)) [cigarettes] | Cigarette consumption after administration of 50 mg of deoxypeganine HCl/day (smokers; without deoxypeganine 41 cigarettes/day (mean of n = 5)) [cigarettes] | Desire for cigarettes (smokers; two smokers, formulation releasing about 50 mg of deoxypeganine hydrochloride per day, 24 hours) | Reduction in cigarette consumption (smokers; single administration of 50 mg/day) | Cholinesterase inhibitory action in comparison to physostigmine (acetylcholinesterase; based on the unit of weight) | Acetylcholinesterase inhibition (acetylcholinesterase; reversibly acting cholinesterase inhibitor) | Monoamine oxidase inhibition (monoamine oxidase) | Blood-brain barrier crossing [1] |
| --- | --- | --- | --- | --- | --- | --- | --- | --- |
| Cl.c1ccc2c(c1)CN1CCCC1=N2 [deoxypeganine HCl, deoxypeganine hydrochloride] | 3 | 6 | obviously suppressed | – | – | – | – | – |
| c1ccc2c(c1)CN1CCCC1=N2 [deoxypeganine] | – | – | – | considerable reduction | somewhat lower | inhibits | inhibits | crosses the blood-brain barrier |
